Measured values published in patent US9723817B2 (priority 2011, dated 2017).

What was measured:
wild type N2 C. elegans = assay: EPG recording of pharyngeal pumping in microfluidic EPG array, wild type worms; type: in vivo, Caenorhabditis elegans
Experimental: (§1) C. elegans strains were grown on Nematode Growth Medium (NGM) agar plates seeded with the OP50 strain of E. coli. All strains were obtained from the Caenorhabditis Genetics Center (CGC; Minneapolis, Minn.). Wild-type worms were Bristol N2 and Ivermectin (IVM) resistant mutants were DA1316 avr-14(ad1302); avr-15(ad1051); glc-1(pk54). Worms were age synchronized by allowing gravid adults to lay eggs on seeded NGM plates for approximately 6 hr. The adults were then removed and embryos allowed to develop to adulthood at room temperature.
All experiments utilized M9 buffer (recipe available on the World Wide Web at 130.15.90.245/wormlab_recipe_book.htm#Commonlab; containing KH2PO4, NaHPO4, NaCl and MgSO4) to which serotonin (5HT) was added to stimulate pharyngeal pumping (Raizen and Avery, Neuron 1994 March; 12(3):483-95). Stocks of serotonin creatine sulfate monohydrate (Sigma H7752; St. Louis, Mo.) were prepared in M9 buffer at 40 mM and held in small aliquots at −20° C. until use. Each day of an experiment, a fresh aliquot was thawed and diluted to 10 mM 5HT in M9 buffer. This “M9-5HT” buffer was the control medium to which drugs or other compounds were added. Stock solutions of ivermectin (10 mM; Sigma 8898) were made up in dimethyl sulfoxide (DMSO, Fisher D-136; Fair Lawn, N.J.) and held at −20° C. for no longer than 2 wk. On the day of an experiment, IVM was diluted to the final concentration in M9-5HT buffer containing 0.005% Fast Green (Fisher F-99) as a visual indicator of drug flow within the chip (see below). The dye-containing M9-5HT buffer was filtered (PALL Life Sciences 25 mm Acrodisc syringe filter with 0.2 μm HT Tuffryn Membrane; Port Washington, N.Y.) before drug or DMSO was added.
Young adult worms were transferred from growth plates into a glass well containing M9-5HT buffer and left to acclimate for 10 minutes. […]
(§2) EPGs were recorded by a pair of 4-channel AC differential amplifiers (A-M Systems model 1700, Carlsborg, Wash.) connected to electrodes inserted into the device. […]

[1] = system: ivermectin resistance mutant C. elegans avr-14(ad1302); avr-15(ad1051); glc-1(pk54); assay: EPG recording of pharyngeal pumping in microfluidic EPG array, ivermectin-resistant mutant worms; type: in vivo, Caenorhabditis elegans; settings: 10 μM ivermectin in M9-5HT buffer, ivermectin-resistant mutant (FIG. 5)
Experimental: as §1
All experiments utilized M9 buffer (recipe available on the World Wide Web at 130.15.90.245/wormlab_recipe_book.htm#Commonlab; containing KH2PO4, NaHPO4, NaCl and MgSO4) to which serotonin (5HT) was added to stimulate pharyngeal pumping (Raizen and Avery, Neuron 1994 March; 12(3):483-95). Stocks of serotonin creatine sulfate monohydrate (Sigma H7752; St. Louis, Mo.) were prepared in M9 buffer at 40 mM and held in small aliquots at −20° C. until use. Each day of an experiment, a fresh aliquot was thawed and diluted to 10 mM 5HT in M9 buffer. This “M9-5HT” buffer was the control medium to which drugs or other compounds were added. […]
as §2

With `c1ccc([C@H]2CN3CCSC3=N2)cc1` [levamisole] the “inhibition of pharyngeal pumping (EPG)” value (wild type N2 C. elegans; 10 mM levamisole in M9-5HT buffer, within 10 minutes (FIG. 6B)) was “completely inhibited” and the “pharyngeal pumping after washout of drug (EPG)” value (wild type N2 C. elegans; after 10 mM levamisole, within 60 minutes of wash onset with control buffer (FIG. 6C)) was “returned to normal”.

ivermectin was tested, and the “size and frequency of EPG signal” value (wild type N2 C. elegans; 10 μM ivermectin in M9-5HT buffer, 10 minutes after treatment, all eight C. elegans (FIG. 4)) was “significantly reduced or even eliminated” and the “block of pharyngeal pumping (EPG)” value [1] was “failed to block”.
